In series [1] the test system is OSCC cell lines. The series is described as follows: ROS assays by flow cytometry (DCF-DA). It counts as cell-based, human. The conditions noted are these: 1 h. As for the experimental part:
FIGS. 1I-1 to 1I-3. Reactive oxygen species (ROS) assays. The level of ROS in OSCC cell lines was examined by flow cytometry using 2,7-dichlorodihydrofluorescein diacetate (DCFH-DA; Sigma). Approximately 3×10^5 cells were plated in 12-well plates. To detect ROS, cells were incubated for 30 min at 37° C. with DCF-DA, washed and then treated for 1 h with 30 μM capsazepine (grey, thick line), 150 μM capsaicin (grey, thin line), 30 μM capsazepine+150 μM capsaicin (black line), or vehicle control (dotted line). The cells were harvested, washed twice, and analyzed by flow cytometry.
FIGS. 1I-4(a)-(b) to 1I-6(a)-(b). Induction of ROS in OSCC cell lines. (a). ROS induction in OSCC cell lines following 1 h treatment with 30 μM CPZ (black line) compared to vehicle control. (b). ROS induction in OSCC cell lines following 1 h treatment with 30 μM CPZ is reversed by NAC co-treatment (black line) as indicated in the shift in their peaks to the left.
ROS levels in OSCC cell lines were examined by flow cytometry using 2,7-dichlorodihydrofluorescein diacetate (DCF-DA; Sigma-Aldrich, St. Louis, Mo.). Cells (3×10^5) were plated in 12-well plates and incubated for 30 min with DCF-DA at 37° C. then treated with 30 μM capsazepine using phenol free media with and without 10 mM NAC. Treated cells were incubated for 1 h at 37° C., harvested, washed twice, and analyzed by FACS.
For orientation: A flow cytometer gives signals particle by particle.

Series [2] concerns OSCC cell lines (HSC3, SCC4, and SCC25). The series is described as follows: Calcium imaging of OSCC cell lines. It counts as cell-based, human. As for the experimental part: FIGS. 1J-1 to 1J-2. FIGS. 1J-1(a) to (c): […] FIGS. 1J-2(a) to (c): […] Arrow indicates time point when treatment was added. […] This was due to the toxic effects of this high capsaicin concentration which permeablized the cell membrane allowing calcium to flow freely […] the cell. This was not reversed by capsazepine. […] These finding confirm that activation of TRPV1 is not the mechanism by which cell death is induced using capsazepine.

The subject of series [3] is OKF6 cells. The series can be described thus: Cell viability assay of immortalized non-malignant oral keratinocytes. It counts as cell-based. Conditions: CAP 150 μM, 24 hours. The source says: FIG. 1D-2. […] Treatment with high concentrations of CAP induces death of normal, non-malignant OKF6 cells. The effect of which was reversed by the pre-treatment with CPZ.
Series [4] deals with HSC3 cells. The series is described as follows: Cell viability assay of HSC3 cells, dose response curve. The class given is cell-based. The conditions noted are these: Homo sapiens, HSC-3, HSC3 cells, FIG. 1K. The source says:
FIG. 1K. Cell viability assay of HSC3 cells treated with increasing concentrations of curcumin; […]

Series [5] has as its system immortalized human bronchiolar epithelial cell line transformed with a TRPV1 insert. Conditions: TRPV1-overexpressing cultured cells, treatment with CAP; cited from earlier work.
The test system of series [6] is OSCC cell lines (HSC3, SCC4, and SCC25).
Description: Cell viability assays reported as % of vehicle control (n=3). […] VEH=delivery vehicle control without CAP or CPZ. *p<0.05, ***p<0.001.
FIG. 1H-1: Cell viability assays of OSCC cell lines treated with 30 μM CPZ alone or in combination with 10 mM N-Acetyl-L-Cysteine (NAC) for 24 h (n=4); ***p<0.001.
Human OSCC Cell Lines. The human OSCC cell lines MDA231, PS3, SCC4 and SCC25 were obtained from ATCC (American Type Culture Collection, Rockville, Md.). The HSC3 cell line was obtained from the Japanese Cell Resource Bank (Osaka, Japan). […] Cells were maintained in DMEM (GIBCO, Carlsbad, Calif.) supplemented with 10% FBS at 37° C. in 5% CO2. Both cell lines were derived from primary OSCC tumors from the tongues of male patients in their fifth generation of life. Data regarding pertinent medical history, treatment, outcome of care and recurrence were not available.
Statistical Analysis. Statistical analyses were performed using GraphPad Prism4 (San Diego, Calif.). Experiments were performed in triplicate and results are represented as means+SD except when indicated. […] Cytotoxicity assays of cell viability were analyzed by one-way ANOVA and Bonferroni's post-hoc test (n=3).
Series [7] deals with T1, TRPV1 (Homo sapiens, UniProt Q8NER1). Conditions: read-out: hIC50 (45Ca2+ uptake); cited from earlier work.
Target sequence in this assay (Q8NER1 whole entry): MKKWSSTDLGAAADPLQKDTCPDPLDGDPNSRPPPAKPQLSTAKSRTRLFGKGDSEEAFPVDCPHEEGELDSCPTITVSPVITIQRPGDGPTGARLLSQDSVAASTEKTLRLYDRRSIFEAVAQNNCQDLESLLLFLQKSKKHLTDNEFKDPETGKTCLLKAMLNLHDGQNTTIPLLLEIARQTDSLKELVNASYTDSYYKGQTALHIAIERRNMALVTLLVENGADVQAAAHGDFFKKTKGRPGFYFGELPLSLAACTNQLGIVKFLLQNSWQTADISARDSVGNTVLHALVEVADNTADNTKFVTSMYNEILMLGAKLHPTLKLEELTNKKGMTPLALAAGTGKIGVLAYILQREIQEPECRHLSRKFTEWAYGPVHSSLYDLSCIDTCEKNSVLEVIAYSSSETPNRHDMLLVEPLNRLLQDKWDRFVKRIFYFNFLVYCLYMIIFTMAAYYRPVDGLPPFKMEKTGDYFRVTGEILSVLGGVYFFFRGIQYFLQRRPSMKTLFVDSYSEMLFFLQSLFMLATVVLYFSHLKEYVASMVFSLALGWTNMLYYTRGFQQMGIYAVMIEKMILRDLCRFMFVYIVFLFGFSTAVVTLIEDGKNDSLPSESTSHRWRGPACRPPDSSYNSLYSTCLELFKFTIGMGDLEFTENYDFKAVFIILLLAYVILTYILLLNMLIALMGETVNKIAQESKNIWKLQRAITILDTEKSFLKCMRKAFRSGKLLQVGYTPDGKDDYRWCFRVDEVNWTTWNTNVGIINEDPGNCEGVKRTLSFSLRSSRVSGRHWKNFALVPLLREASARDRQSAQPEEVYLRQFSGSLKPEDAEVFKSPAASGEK
Series [8] has as its system CFA-induced thermal hyperalgesia. Conditions: cited from earlier work.
Series [9] has as its target T2, TRPM8 (Homo sapiens, UniProt Q7Z2W7). Conditions: cited from earlier work.
Target sequence in this assay (Q7Z2W7 whole entry, species assumed): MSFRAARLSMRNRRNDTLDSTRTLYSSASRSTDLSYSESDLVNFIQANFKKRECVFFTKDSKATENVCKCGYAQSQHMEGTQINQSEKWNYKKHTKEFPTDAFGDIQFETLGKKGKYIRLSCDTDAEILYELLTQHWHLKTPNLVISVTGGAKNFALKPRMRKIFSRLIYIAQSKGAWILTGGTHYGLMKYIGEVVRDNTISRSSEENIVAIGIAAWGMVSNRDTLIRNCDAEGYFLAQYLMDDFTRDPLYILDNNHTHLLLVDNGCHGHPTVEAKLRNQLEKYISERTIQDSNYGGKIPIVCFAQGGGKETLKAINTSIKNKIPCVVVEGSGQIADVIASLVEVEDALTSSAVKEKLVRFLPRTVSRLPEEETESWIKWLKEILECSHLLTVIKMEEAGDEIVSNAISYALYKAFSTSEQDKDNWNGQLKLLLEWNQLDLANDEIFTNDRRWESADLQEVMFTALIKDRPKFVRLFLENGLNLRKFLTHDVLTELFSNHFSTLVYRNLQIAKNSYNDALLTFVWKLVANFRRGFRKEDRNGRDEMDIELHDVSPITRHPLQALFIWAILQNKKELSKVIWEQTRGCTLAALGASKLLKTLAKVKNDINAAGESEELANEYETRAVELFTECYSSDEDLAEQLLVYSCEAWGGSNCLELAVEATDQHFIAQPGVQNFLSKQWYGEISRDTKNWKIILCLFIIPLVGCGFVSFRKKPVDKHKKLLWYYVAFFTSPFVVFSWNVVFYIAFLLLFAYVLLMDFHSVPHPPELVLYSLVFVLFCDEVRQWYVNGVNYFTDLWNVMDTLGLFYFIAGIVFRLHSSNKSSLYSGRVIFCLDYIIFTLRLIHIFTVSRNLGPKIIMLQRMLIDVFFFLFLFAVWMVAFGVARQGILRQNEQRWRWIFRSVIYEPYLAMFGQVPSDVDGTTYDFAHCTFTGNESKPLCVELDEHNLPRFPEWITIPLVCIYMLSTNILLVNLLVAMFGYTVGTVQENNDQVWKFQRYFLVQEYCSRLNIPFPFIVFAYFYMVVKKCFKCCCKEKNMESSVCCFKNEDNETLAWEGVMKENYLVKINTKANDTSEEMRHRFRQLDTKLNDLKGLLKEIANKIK
Series [10] concerns the target T3, TRPA1 (Homo sapiens, UniProt O75762). The conditions noted are these: cited from earlier work.
Target sequence in this assay (O75762 whole entry, species assumed): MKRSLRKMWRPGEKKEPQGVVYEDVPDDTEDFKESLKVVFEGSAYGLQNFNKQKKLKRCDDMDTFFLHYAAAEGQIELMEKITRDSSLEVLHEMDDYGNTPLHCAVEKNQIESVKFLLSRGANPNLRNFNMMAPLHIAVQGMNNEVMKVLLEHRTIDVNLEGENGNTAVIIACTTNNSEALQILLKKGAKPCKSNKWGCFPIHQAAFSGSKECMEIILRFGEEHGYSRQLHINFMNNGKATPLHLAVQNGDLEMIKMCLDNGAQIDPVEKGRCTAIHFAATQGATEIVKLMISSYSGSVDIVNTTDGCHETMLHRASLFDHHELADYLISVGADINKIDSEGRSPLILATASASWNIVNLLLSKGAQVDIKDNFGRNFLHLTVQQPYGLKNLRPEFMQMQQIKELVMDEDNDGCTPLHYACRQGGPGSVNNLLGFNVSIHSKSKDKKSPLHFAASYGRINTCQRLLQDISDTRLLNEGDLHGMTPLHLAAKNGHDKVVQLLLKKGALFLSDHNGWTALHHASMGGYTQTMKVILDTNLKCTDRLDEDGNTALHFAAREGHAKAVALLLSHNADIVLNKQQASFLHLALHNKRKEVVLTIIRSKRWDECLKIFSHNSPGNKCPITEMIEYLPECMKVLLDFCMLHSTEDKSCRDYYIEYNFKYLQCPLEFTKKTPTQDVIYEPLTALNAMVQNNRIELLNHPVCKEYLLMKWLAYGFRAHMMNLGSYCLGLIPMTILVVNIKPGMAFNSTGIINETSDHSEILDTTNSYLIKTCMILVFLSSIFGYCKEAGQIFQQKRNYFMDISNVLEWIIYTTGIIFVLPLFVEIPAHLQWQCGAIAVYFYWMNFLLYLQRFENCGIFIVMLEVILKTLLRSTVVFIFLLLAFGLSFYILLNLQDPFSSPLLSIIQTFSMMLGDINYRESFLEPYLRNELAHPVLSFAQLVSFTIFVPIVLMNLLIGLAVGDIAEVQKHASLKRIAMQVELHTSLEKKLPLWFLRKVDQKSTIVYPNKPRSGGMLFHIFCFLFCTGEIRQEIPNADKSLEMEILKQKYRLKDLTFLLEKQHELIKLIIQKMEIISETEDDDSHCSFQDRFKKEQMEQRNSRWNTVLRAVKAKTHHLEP
Series [11] concerns capsaicin-evoked flare and acute heat-evoked pain. Conditions: Phase I; cited from earlier work.
The test system of series [12] is CFA-induced mechanical hyperalgesia. Conditions: cited from earlier work.
In series [13] the test system is partial nerve-ligation model. Conditions: cited from earlier work.
The test system of series [14] is carrageenan-induced thermal hyperalgesia. The conditions noted are these: cited from earlier work.
The target of series [15] is T3, TRPA1. Conditions: read-out: hIC50 at TRPA1; cited from earlier work.
Target sequence in this assay (O75762 whole entry): as the sequence (O75762 whole entry, species assumed) above
Series [16] concerns the target T2, TRPM8. Conditions: read-out: hIC50 at TRPM8; cited from earlier work.
Target sequence in this assay (Q7Z2W7 whole entry): as the sequence (Q7Z2W7 whole entry, species assumed) above
Series [17] addresses TRPV3 (Homo sapiens, UniProt Q8NET8). Conditions: read-out: hIC50 at TRPV3; cited from earlier work.
In series [18] the target is TRPV4 (Homo sapiens, UniProt Q9HBA0). Conditions: read-out: hIC50 at TRPV4; cited from earlier work.
Series [19] deals with PC3 prostate cancer cells. The series is described as follows: Cell viability assay of PC3 cells with and without NAC. It counts as cell-based, human. The conditions noted are these: 10 mM NAC, prostate cancer cells.
The test system of series [20] is MDA231 breast cancer cells. The series is described as follows: Cell viability assay of MDA231 cells with and without NAC. It counts as cell-based, human. Conditions: 10 mM NAC.
The conditions of series [21]: rats, 30 mg per kg, orally; cited from earlier work.
The subject of series [22] is bone-cancer pain. The conditions noted are these: in vivo model of bone-cancer pain; cited from earlier work.
In series [23] the target is T1, TRPV1. Conditions: read-out: hKi (FLIPR); cited from earlier work.
Target sequence in this assay (Q8NER1 whole entry): as the sequence (Q8NER1 whole entry) above
The subject of series [24] is TRPV4 and other TRP channels. Conditions: cited from earlier work.
Series [25] has as its target T1, TRPV1. The conditions noted are these: cited from earlier work.
Target sequence in this assay (Q8NER1 whole entry, species assumed): as the sequence (Q8NER1 whole entry) above
The conditions of series [26]: cited from earlier work.

Where two headings read alike, the source gives them in different places. A value given as a limit tells only on which side of the number the result lay.

Sequence of TRPV3 (Q8NET8 whole entry): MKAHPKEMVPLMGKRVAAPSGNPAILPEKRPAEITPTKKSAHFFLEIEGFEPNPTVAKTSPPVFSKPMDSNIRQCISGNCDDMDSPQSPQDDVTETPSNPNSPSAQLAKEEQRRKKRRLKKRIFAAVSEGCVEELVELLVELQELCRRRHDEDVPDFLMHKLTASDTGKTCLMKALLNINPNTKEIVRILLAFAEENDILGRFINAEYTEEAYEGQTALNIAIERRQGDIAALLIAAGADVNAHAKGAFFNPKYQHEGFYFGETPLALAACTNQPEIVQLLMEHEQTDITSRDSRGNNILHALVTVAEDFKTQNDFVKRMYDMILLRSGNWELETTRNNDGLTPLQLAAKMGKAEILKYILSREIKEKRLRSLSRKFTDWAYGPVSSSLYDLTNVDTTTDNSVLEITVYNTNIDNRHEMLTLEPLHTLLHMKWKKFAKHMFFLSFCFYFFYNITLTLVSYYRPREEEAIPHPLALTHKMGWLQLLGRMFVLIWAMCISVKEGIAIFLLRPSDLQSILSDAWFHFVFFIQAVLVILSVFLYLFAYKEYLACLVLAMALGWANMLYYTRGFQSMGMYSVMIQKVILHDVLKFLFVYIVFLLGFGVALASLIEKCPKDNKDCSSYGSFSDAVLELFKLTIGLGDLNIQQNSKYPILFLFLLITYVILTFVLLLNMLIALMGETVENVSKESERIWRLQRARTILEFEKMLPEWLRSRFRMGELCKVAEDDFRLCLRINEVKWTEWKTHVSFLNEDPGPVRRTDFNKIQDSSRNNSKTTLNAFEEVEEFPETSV
Sequence of TRPV4 (Q9HBA0 whole entry): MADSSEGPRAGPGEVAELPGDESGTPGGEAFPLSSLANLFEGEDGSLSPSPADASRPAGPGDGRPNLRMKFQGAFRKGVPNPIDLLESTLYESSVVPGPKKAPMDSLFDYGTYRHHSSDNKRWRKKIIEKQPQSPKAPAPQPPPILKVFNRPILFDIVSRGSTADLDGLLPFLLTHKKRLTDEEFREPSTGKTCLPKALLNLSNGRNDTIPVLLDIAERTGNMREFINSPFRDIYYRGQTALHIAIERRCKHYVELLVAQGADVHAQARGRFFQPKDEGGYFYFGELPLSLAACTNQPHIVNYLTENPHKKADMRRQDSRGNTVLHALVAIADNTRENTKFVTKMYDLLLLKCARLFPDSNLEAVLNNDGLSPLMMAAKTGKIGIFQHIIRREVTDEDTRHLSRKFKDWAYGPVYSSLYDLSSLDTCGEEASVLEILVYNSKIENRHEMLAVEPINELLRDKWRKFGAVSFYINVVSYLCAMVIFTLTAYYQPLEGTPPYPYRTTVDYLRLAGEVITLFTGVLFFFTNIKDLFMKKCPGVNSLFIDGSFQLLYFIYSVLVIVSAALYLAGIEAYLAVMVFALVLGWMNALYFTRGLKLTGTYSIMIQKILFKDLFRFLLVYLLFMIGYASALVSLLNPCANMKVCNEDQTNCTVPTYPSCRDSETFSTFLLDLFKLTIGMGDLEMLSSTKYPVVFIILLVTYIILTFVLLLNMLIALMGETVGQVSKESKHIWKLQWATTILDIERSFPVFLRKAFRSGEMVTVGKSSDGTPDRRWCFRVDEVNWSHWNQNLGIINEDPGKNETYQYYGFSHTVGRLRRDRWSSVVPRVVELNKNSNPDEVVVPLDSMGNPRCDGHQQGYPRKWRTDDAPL

For the compound `COc1cc(CNC(=O)CCCC/C=C/C(C)C)ccc1O` [CAP, capsaicin], the “level of ROS” value in series [1] (150 μM capsaicin) is reported as “increase in ROS”. The calcium influx entry in series [2] (20 μM capsaicin) was “fails to cause an influx of calcium”. In addition, in series [2] (150 μM capsaicin (cytotoxic level)), the calcium flow entry is given as “calcium outflow occurred over a prolonged period of time”. The “cell viability of normal, non-malignant cells” value in [3] is reported as “induces death”. This compound also returned an IC50 in [4] of approximately 150 µM. Further, the apoptosis entry in series [5] is recorded as “did result in apoptosis”. Moreover, the “cell viability / cytotoxic effects” value in series [6] (30 μM, 24 hrs, HSC3, SCC4, SCC25) is “does not”. For the same compound, the cell viability result in series [6] (150 μM, HSC3, SCC4 and SCC25) is recorded as “significantly reduces cell viability”.

For the compound `COc1cc(/C=C/C(=O)CC(=O)/C=C/c2ccc(O)c(OC)c2)ccc1O` [curcumin], in [4], the IC50 worked out at 90 µM.

Take `C[C@@H]1CN(c2ncc(C(O)CO)cc2Cl)CCN1c1nc2c(-c3cc(F)c(F)c(F)c3)cc(C(F)(F)F)cc2[nH]1` (stereo partly drawn) [Compound 46ad]: the IC50 in series [7] was 0.001 µM. Besides, the “reversal of CFA-induced thermal hyperalgesia” value in series [8] (30 mg per kg, orally) is given as “significant reversal”.

For `O=C(NCc1ccc(C(F)(F)F)cc1)Nc1cccc2cnccc12` [A-425619], the IC50 in series [9] is 8 µM; in series [10], more than 10 µM. Besides, in [8] (in vivo), the “ED50, CFA-induced thermal hyperalgesia” value is reported as 10 mg per kg.

Consider `O=C(Nc1ccccc1Br)N[C@@H]1CCN(c2ccc(C(F)(F)F)cn2)C1` [SB-705498], for which, in series [11], the “acute heat-evoked pain on non-sensitized skin” value is “reduced” and the capsaicin-evoked flare entry is recorded as “reduced”.

`Cc1nc2cc(C(C)C)c(-c3ccc(Cl)c(OCC4CC4)c3)cc2c(=O)[nH]1` [Compound 26]: the “reversal of CFA-induced mechanical hyperalgesia” value in series [12] (30 mg per kg, orally) is given as 60%. The “reversal of mechanical hyperalgesia” value in [13] is listed as 57%.

As for `FC(F)(F)c1ccc(Nc2ncnc3cc(-c4ncccc4C(F)(F)F)ccc23)cc1` [Quinazoline analog], the “block of carrageenan-induced thermal hyperalgesia” value in series [14] (at 3 mg per kg) is recorded as 80%. Further, in series [14] (minimum effective dose), the “MED, carrageenan-induced thermal hyperalgesia” value is reported as 0.1 mg per kg.

`CC(C)(C)c1ccc(/C=C/C(=O)Nc2ccc3c(c2)OCCO3)cc1` [AMG-9810]: in [8] (30 mg per kg), the CFA-induced thermal hyperalgesia entry was “Inhibits”. Besides, the IC50 in series [15], in series [16], in [17] and in [18] was more than 4 µM in each case. In addition, in series [12] (100 mg per kg), the CFA-induced mechanical hyperalgesia entry is on record as “Inhibits”.

Consider `CC(=O)N[C@@H](CS)C(=O)O` [NAC, N-Acetyl-L-Cysteine], for which the “ROS induction by 30 μM CPZ with NAC co-treatment” value in [1] (10 mM NAC) is listed as “reversed”. Also, the “effect of NAC on the effects of CPZ” value is “reverse significantly” in series [19]; “reverse significantly” in series [20]; “reverse significantly” in series [6] (10 mM NAC, all OSCC cell lines tested).

For the compound `O=C(Nc1ccc(C(F)(F)F)cn1)N1CCN(c2ncccc2C(F)(F)F)CC1` [JNJ-17203212], the “increase in core body temperature” value in series [21] is approximately 1 °C. In series [22], the nocifensive behaviors entry was “Attenuates”.

Turning to `COc1cccc(NC(=O)/C=C/c2ccc(Cl)cc2)c1` [SB-366791], the Ki in [23] is 0.018 µM. Moreover, in [24], the “selectivity versus TRPV4 and other TRP channels” value is reported as “Selective”. The “capsaicin and heat-mediated activation of TRPV1” value in [25] is reported as “Inhibits”.

In the case of `CC(C)(C)c1ccc(NC(=O)N2CCN(c3ncccc3Cl)CC2)cc1` [BCTC, N-(4-tertiarybutylphenyl)-4-(3-chloropyridin-2-yl)tetrahydropyrazine-1(2H)-carboxamide], the IC50 in series [9] was 0.143 µM. In addition, the CFA-induced thermal hyperalgesia result in series [8] (3-30 mg per kg, orally) is recorded as “Inhibits”. The CFA-induced mechanical hyperalgesia entry in series [12] (3-30 mg per kg, orally) is “Inhibits”. Also, in series [13], the tactile allodynia result was “Reduces” and the thermal hyperalgesia entry is “Reduces”.

Take AMG 517: the IC50 in [7] is 0.0009 µM. Besides, the “block of CFA-induced thermal hyperalgesia” value in series [8] (at 10 mg per kg) is on record as approximately 40%. Further, the “MED, CFA-induced thermal hyperalgesia” value in [8] (minimum effective dose) is 1 mg per kg. Also, the body temperature increases in [26] (doses of 2 mg, in one patient) is approximately 3 °C. For the same compound, in series [26] (seen at 0.3-3 mg/kg, oral administration), the hyperthermia result is “up to 1.5 °C”.

The values above are taken from patent publication US9642859B2, “Use of capsazepine and analogs thereof to treat cancer” (THE BOARD OF REGENTS OF THE UNIVERSITY OF TEXAS SYSTEM, priority 2012, dated 2017).
